A word on the IC50: it is the concentration at which inhibition is half-maximal.

These results are taken from ChEMBL document CHEMBL1150565, “Cheilanthane sesterterpenes, protein kinase inhibitors, from a marine sponge of the genus Ircinia” (J Nat Prod, 2001).

SMILES strings stand for the structures.

For experiment [1], the target named is MAP kinase-activated protein kinase 2 (Homo sapiens, UniProt P49137). In words: Inhibition of MAPKAPK2 assessed as [33P] incorporation by scintillation proximity assay. For orientation: SPA uses beads or plates that emit light when radiolabelled molecules are held near them.
Sequence of MAP kinase-activated protein kinase 2 (P49137 whole entry): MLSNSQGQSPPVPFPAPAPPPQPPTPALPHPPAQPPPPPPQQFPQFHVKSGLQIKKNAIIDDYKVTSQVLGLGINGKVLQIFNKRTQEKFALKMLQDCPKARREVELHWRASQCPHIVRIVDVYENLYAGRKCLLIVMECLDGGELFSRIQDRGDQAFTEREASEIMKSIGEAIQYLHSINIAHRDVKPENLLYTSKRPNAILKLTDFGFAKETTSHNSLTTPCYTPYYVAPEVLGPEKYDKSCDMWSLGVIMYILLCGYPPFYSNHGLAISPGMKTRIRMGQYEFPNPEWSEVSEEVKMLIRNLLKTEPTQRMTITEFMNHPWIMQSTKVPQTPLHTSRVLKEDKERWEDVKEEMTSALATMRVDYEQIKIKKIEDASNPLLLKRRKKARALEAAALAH
The target in experiment [2] is Ribosomal protein S6 kinase alpha-5 (Homo sapiens, UniProt O75582). In words: Inhibition of MSK1 assessed as [33P] incorporation by scintillation proximity assay.
Sequence of Ribosomal protein S6 kinase alpha-5 (O75582 whole entry): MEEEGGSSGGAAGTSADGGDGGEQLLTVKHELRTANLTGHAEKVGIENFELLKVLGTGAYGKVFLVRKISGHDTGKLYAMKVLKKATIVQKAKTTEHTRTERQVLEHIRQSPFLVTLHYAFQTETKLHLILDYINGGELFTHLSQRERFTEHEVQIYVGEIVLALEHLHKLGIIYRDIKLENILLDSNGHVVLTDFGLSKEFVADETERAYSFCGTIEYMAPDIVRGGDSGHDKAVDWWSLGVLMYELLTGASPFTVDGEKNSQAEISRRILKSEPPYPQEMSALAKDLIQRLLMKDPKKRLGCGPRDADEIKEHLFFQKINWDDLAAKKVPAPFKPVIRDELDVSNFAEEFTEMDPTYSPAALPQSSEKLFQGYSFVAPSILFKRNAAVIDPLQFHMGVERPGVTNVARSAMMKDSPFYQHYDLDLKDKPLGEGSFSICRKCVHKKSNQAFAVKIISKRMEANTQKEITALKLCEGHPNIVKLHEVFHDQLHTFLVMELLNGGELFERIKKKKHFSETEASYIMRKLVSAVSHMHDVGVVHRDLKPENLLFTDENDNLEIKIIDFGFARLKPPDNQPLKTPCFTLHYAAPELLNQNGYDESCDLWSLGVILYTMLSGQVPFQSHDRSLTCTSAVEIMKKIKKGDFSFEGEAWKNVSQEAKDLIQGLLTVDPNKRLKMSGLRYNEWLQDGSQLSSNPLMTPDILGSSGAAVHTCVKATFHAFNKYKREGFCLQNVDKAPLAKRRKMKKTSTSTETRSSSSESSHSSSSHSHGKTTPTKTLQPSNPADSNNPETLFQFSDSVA

Consider `C=C1CC[C@H]2[C@@](C)(CC[C@H]3C(C)(C)CCC[C@]23C)[C@@H]1CC1OC(=O)C=C1CO` (stereo partly drawn), for which the figures for the IC50 in experiment [1] and in experiment [2] were 90 µM and 4 µM, respectively.
`CC1(C)CCC[C@]2(C)[C@H]3CC[C@]4(C)O[C@@H](C5=CC(=O)OC5O)C[C@H]4[C@]3(C)CC[C@@H]12` (mixture of isomers): the concentration for half-maximal inhibition (IC50) amounted to 90 µM in experiment [1] and 4 µM in experiment [2].
Consider `C=C1CC[C@H]2[C@@](C)(CC[C@H]3C(C)(C)CCC[C@]23C)[C@@H]1CC(O)C1=CC(=O)OC1O` (mixture of isomers), for which the values for the 50% inhibitory concentration (IC50) in experiment [1] and in experiment [2] were 90 µM and 4 µM, respectively.
The like results for `C=C1CC[C@H]2[C@@](C)(CC[C@H]3C(C)(C)CCC[C@]23C)[C@@H]1/C=C/C1=CC(=O)OC1O` (mixture of isomers) were, in that order, 90 µM and 4 µM.
